Several values for one entry are separate records, joined by “and”; a condition that tells them apart may be missing. Equal values may be shown once. Read-outs that look alike come from different tables or passages of the source.
How the values were obtained:
[1] = Blocker Index (BI) assigned by perfumers/expert graders on isovaleric acid swatches; design: species or system human; key: BI odor strength 0 (lowest, clean swatch) to 3 (highest)
Source text: (§1) Blocker materials suitable for use in consumer products of the present invention are chosen for their ability to decrease malodor, while not interfering with perception of a fragrance. Material selection is done by assigning two indices to a test sample material from two reference scales in order to rank odor strengths. The two reference scales are the Fragrance Fidelity Index (FFI) scale and the Blocker Index (BI) scale. The FFI ranks the ability of the test sample material to impart a perceivable odor which could cause interference when combined with another fragrance and the BI ranks the ability of the test sample material to reduce malodor perception. The two methods for assigning the indices to a test sample on the FFI and the BI reference scales are given below.
(§2) The first step in the method for assigning a BI to a test sample material on the BI reference scale is to create the BI reference swatches. […] Fabric swatches for this test are white knit polycotton (4 inch×4 inch) swatches from EMC ordered as PC 50/50. The supplier is instructed to strip the swatches first, stripping involves washing twice with a fragrance-free detergent and rinsing three times.
The BI scale contains one clean swatch with no malodor applied. […] These solutions are pipetted to the middle of the swatches. […] After drying for 30 minutes in a vented hood, the swatches are wrapped in aluminum foil to prevent odor contamination to the treated swatch. A clean untreated swatch is also included as the lowest anchor point of reference for malodor strength on the BI scale. The BI reference scale swatches should be used within 0.5 to 12 hours and discarded after 12 hours. The swatches are used as scale anchor points when graders evaluate a test sample(s) and are assigned a Blocker Index (BI) as show in Table 12.
The perfumer/expert grader is asked to rank order swatches according to a scale between 0 and 3.
The reference swatches represent the 0, 1, 2, and 3 BIs on the BI reference scale, Table 12. The expert grader should familiarizes him/herself with the strength of the odor on the BI reference swatches by sniffing each one starting at 0 (the lowest odor strength) and ending at 3 (the highest odor strength). This should be done prior to evaluating the swatch treated with the test material.
To evaluate the BI, the test material is applied to a malodorous swatch to determine how well the test material blocks the malodor. […] After drying the malodorous swatch a known concentration of test material solution, between 1 ppm and 100 ppm is pipetted onto the malodorous swatch. […] It is sometimes necessary to evaluate several levels of the test material between about 1 and about 100 ppm to determine the BI.
At least two perfumers/expert graders are used to assign the BI to the test sample. […] The test sample swatch is assigned a BI at or between numbers on the BI in table.

[2] = Liquid dish neat product liquid-air partition coefficient; format: physicochemical
[3] = Fragrance Fidelity Index (FFI) assigned by perfumers/expert graders on fabric swatches; design: species or system human; key: FFI grade on reference scale anchored by 0, 1, 2, 3 swatches
Source text: as §1
as §2, with “assigning an FFI” for “assigning a BI”, “to the” for “to a”, “test samples” for “test sample material”, “the FFI” for “the BI”
Pipette 13 μL of each of the three solutions into the middle of a clean swatch resulting in about a 1 cm diameter of the solution in the middle of the swatch. This will create a sensory scale of three swatches with three different odor levels based on the concentration of the solution pipetted onto the swatch. After drying for 30 minutes in a vented hood, the swatches are wrapped in aluminum foil to prevent odor contamination to the treated swatch. A clean untreated swatch is also included as the lowest anchor point of reference for odor strength on the FFI scale. The FFI reference scale swatches should be used within 0.5 to 12 hours and discarded after 12 hours. The swatches are used as scale anchor points when graders evaluate a test sample(s) and are assigned a Fragrance Fidelity Index (FFI) as show in Table 7.
The perfumer/expert panel is asked to rank order swatches according to a scale between 0 and 3.
The reference swatches represent the 0, 1, 2, and 3 FFIs on the FFI reference scale, Table 9. The expert grader should familiarize them self with the strength of the odor on the FFI reference swatches by sniffing each one starting at 0 (the lowest odor strength) and ending at 3 (the highest odor strength). This should be done prior to evaluating the test sample material treated swatch.
A clean swatch is treated with 13 μL of a known concentration of a test sample material resulting in an about 1 cm of the solution on the clean swatch. Just like the reference swatches, the test sample material swatch is dried in a vented hood for 30 minutes and then wrapped in aluminum foil to prevent contamination. The test material swatches and the FFI reference swatches should be made within 2 hours of each other. The test material swatch must be used within 0.5 to 12 hours and discarded after 12 hours.
At least two perfumers/expert graders are used to assign an FFI grade to a test sample. The perfumer/expert grader smells the test sample swatch by holding that swatch 1 inch from their nose with their nose centered over the area where the test sample was pipetted on to the fabric and then assigns the test sample an FFI grade using the FFI reference scale anchor swatches as references. In cases where the test sample material is graded greater than 3, the test material is not a blocker material or the concentration of the material needs to be lowered and reevaluated to determine if a lower level has a malodor blocker functionality.

[4] = Probability of Ingredient Color Instability; format: physicochemical
[5] = Conc 10 ppm test material on isovaleric acid swatch
[6] = class code letter within Comment Code
[7] = Conc 10 ppm test material on swatch
[8] = Conc 50 ppm test material on swatch
[9] = Conc 50 ppm test material on isovaleric acid swatch

Row | SMILES | BI [1, 5] | FFI [3, 8] | BI [1, 9] | Log of liquid dish neat product liquid-air partition coefficient (Comment Code K/L) [2] | Probability of Ingredient Color Instability (Comment Code E/F) [4] | further results
1 | CCCCCCCCCCCCCCCC(=O)OC [Material 109] | 2.0 | – | – | – | – | Log of liquid dish neat product liquid-air partition coefficient (Comment Code K/L) [2, 6]: K (Log of liquid dish neat product liquid-air partition coefficient greater than or equal to −7)
2 | CC1(C)CCc2ccc(CCC=O)cc21 [Material 261] | 1.8 | 1.3 | 1.3 | – | – | FFI [3, 7]: 0; Log of liquid dish neat product liquid-air partition coefficient (Comment Code K/L) [2, 6]: K (Log of liquid dish neat product liquid-air partition coefficient greater than or equal to −7); Comment Code: Log of liquid dish neat product liquid-air partition coefficient ([2]; code letters K, L): K (Log of liquid dish neat product liquid-air partition coefficient greater than or equal to −7)
3 | CCC(O)COC1CCCCC1C(C)(C)C (stereo not shown) [Material 677] | 2.3 | 1.8 | 2.0 | K (Log of liquid dish neat product liquid-air partition coefficient greater than or equal to −7) | – | FFI [3, 7]: 0
4 | CCCCCCCCCCCO [Undecanol] | – | 0.8 | 2.3 | – | – | –
5 | CC(CCO)CCc1ccccc1 (stereo not shown) [Material 962] | 2.3 | 0.5 | 1.7 | – | – | FFI [3, 7]: 0
6 | CC(C)(C)C1CCCCC1 [4-tert-butyl cyclohexane] | 2.0 | 0.3 | 2.0 | – | – | FFI [3, 7]: 0
7 | C=C1CCC2OC2(C)CCC2C1CC2(C)C (stereo not shown) [Material 1148] | – | 0.5 | 2.3 | – | – | Comment Code: Log of liquid dish neat product liquid-air partition coefficient ([2]; code letters K, L): K (Log of liquid dish neat product liquid-air partition coefficient greater than or equal to −7); Comment Code: Log of liquid dish neat product liquid-air partition coefficient ([2]; codes K/L of the Comment Code, Table 1): K (Log of liquid dish neat product liquid-air partition coefficient greater than or equal to −7)
8 | C=CC(C)=CCC=C(C)C [Material 524] | – | 0 | 2.8 | – | – | –
9 | COC(=O)OC1CC/C=C\CCC1 (stereo not shown) [Material 1139] | 2.0 | 1.0 | 2.7 | – | – | FFI [3, 7]: 0
10 | CCCCCCCCCCCC(=O)OCC [Material 391] | – | 0.3 | 2.2 | – | – | Log of liquid dish neat product liquid-air partition coefficient (Comment Code K/L) [2, 6]: K (Log of liquid dish neat product liquid-air partition coefficient greater than or equal to −7)
11 | CC(=O)OCCCCCCC(C)C [Material 204] | 2.0 | 0 | 2.7 | – | – | FFI [3, 7]: 0
12 | CCCCCCCCCCCCO [Material 174] | – | 0.5 | 2.3 | – | – | –
13 | CCCCCC1C(=O)CCC1CC(=O)OC (stereo not shown) [Material 1083] | – | – | – | K (Log of liquid dish neat product liquid-air partition coefficient greater than or equal to −7) | F (Probability of Ingredient Color Instability<71%) | –
14 | CC1=C2CCC3(C)OC3C2C(C)(C)CCC1 (stereo not shown) [Material 624] | – | – | – | K (Log of liquid dish neat product liquid-air partition coefficient greater than or equal to −7) | F (Probability of Ingredient Color Instability<71%) | Comment Code: Log of liquid dish neat product liquid-air partition coefficient ([2]; code letters K, L): K (Log of liquid dish neat product liquid-air partition coefficient greater than or equal to −7)
15 | C=C(C)C1CC=C(COC(C)=O)CC1 (stereo not shown) [Material 947] | – | – | – | K (Log of liquid dish neat product liquid-air partition coefficient greater than or equal to −7) | F (Probability of Ingredient Color Instability<71%) | –
16 | O=C1CCC2CCCCC2O1 (stereo not shown) [3,4,4a,5,6,7,8,8a-octahydrochromen-2-one] | 2.0 | 0 | 2.0 | – | – | FFI [3, 7]: 0
17 | CCCCCCCCCC=CC=O [Material 806] | – | – | – | K (Log of liquid dish neat product liquid-air partition coefficient greater than or equal to −7) | F (Probability of Ingredient Color Instability<71%) | –
18 | CC1=C2CC(C(C)(C)O)CCC2(C)CCC1 (stereo not shown) [Material 329] | – | – | – | – | – | Probability of Ingredient Color Instability (Comment Code E/F) [4, 6]: F (Probability of Ingredient Color Instability<71%); Log of liquid dish neat product liquid-air partition coefficient (Comment Code K/L) [2, 6]: K (Log of liquid dish neat product liquid-air partition coefficient greater than or equal to −7); Comment Code: Log of liquid dish neat product liquid-air partition coefficient ([2]; code letters K, L): K (Log of liquid dish neat product liquid-air partition coefficient greater than or equal to −7)
19 | CC1CCC2(O1)C(C)(C)CCCC2(C)O (stereo not shown) [Material 893] | – | – | – | K (Log of liquid dish neat product liquid-air partition coefficient greater than or equal to −7) | F (Probability of Ingredient Color Instability<71%) | –
20 | CC(C)CC(=O)O [isovaleric acid, reference compound] | – | – | – | – | – | BI grade of reference swatch, Ave ([1]; 2 μL 0.08%, all graders (Table 10)): 1.0; BI grade of reference swatch, individual Expert Grader ([1]; stripped swatch with 2 μL 0.08%): 0.5 and 1.0; BI grade of reference swatch, individual Expert Grader ([1]; stripped swatch with 5 μL 0.08%): 2.5; BI grade of reference swatch, individual Expert Grader ([1]; stripped swatch with 20 μL 0.08%): 2.5
21 | CC(C=O)Cc1ccc(C(C)C)cc1 (stereo not shown) [Material 478] | – | – | – | – | – | Probability of Ingredient Color Instability (Comment Code E/F) [4, 6]: F (Probability of Ingredient Color Instability<71%); Log of liquid dish neat product liquid-air partition coefficient (Comment Code K/L) [2, 6]: K (Log of liquid dish neat product liquid-air partition coefficient greater than or equal to −7)
22 | CC(C)CCCC(C)CCCC(C)C=O (stereo not shown) [Material 741] | – | – | – | K (Log of liquid dish neat product liquid-air partition coefficient greater than or equal to −7) | F (Probability of Ingredient Color Instability<71%) | –
23 | CCCCCCC/C=C\CCC=O [Material 1045] | – | – | – | K (Log of liquid dish neat product liquid-air partition coefficient greater than or equal to −7) | F (Probability of Ingredient Color Instability<71%) | –
24 | CCCCCCCC/C=C\CC=O [Material 884] | – | – | – | K (Log of liquid dish neat product liquid-air partition coefficient greater than or equal to −7) | F (Probability of Ingredient Color Instability<71%) | –
25 | CC1(O)CCOC2(CCCCC2)C1 (stereo not shown) [Material 16] | – | – | – | – | – | Probability of Ingredient Color Instability (Comment Code E/F) [4, 6]: F (Probability of Ingredient Color Instability<71%); Log of liquid dish neat product liquid-air partition coefficient (Comment Code K/L) [2, 6]: K (Log of liquid dish neat product liquid-air partition coefficient greater than or equal to −7)
26 | CCOC(=O)OC1C(C)CCC(C)C1C (stereo not shown) [Material 1005] | – | 0.5 | 2.6 | – | – | –

— patent publication US20160090556A1, “PRODUCTS COMPRISING MALODOR REDUCTION MATERIALS” (The Procter & Gamble Company, priority 2014, published 2016)
